Laboratory results published in ChEMBL document CHEMBL1201862, “PubChem BioAssay data set” (2004).
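Interpolation was linear, between the two tested concentrations surrounding the appropriate level; five concentrations were tested over 48 hours in 96-well plates. At the GI50, growth is halved.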 Activity calls are given as the source filed them. No stated cut-off is given here; in the data, active = GI50 up to about 1.1 µM and inactive = higher.

Assays:
Experiment in all cases: growth of human tumour cells (NCI), 48 h
[1] = test system: 786-0
[2] = test system: A498
[3] = test system: ACHN
[4] = test system: HCC 2998
[5] = test system: HT-29
[6] = test system: IGROV-1
[7] = test system: K562
[8] = test system: KM12
[9] = test system: MOLT-4
[10] = test system: Malme-3M
[11] = test system: OVCAR-8
[12] = test system: SF-539
[13] = test system: SK-MEL-2
[14] = test system: SNB-75
[15] = test system: SNB-78
[16] = test system: UACC-257
[17] = test system: COLO 205
[18] = test system: OVCAR-4

Measured: GI50

COc1ccc(CC(=O)NCCc2ccc(OC)c(OC)c2OC)cc1
inactive: [1] 41.6 µM | [2] > 100 µM | [3] > 100 µM | [4] > 100 µM | [5] > 100 µM | [6] > 100 µM | [7] > 100 µM | [8] > 100 µM | [9] > 100 µM | [10] > 100 µM | [11] > 100 µM | [12] 16.4 µM | [13] > 100 µM | [14] > 100 µM | [15] > 100 µM | [16] > 100 µM

COc1ccc(NC(=O)CCc2cc(C(C)(C)C)[nH]n2)cc1
inactive: [1] > 100 µM | [2] > 100 µM | [3] > 100 µM | [17] > 100 µM | [4] > 100 µM | [5] > 100 µM | [6] > 100 µM | [7] > 100 µM | [8] > 100 µM | [9] > 100 µM | [10] > 100 µM | [11] > 100 µM | [12] > 100 µM | [13] > 100 µM | [14] > 100 µM | [15] > 100 µM | [16] > 100 µM

CCO/C=C1\N=C(c2ccccc2Br)OC1=O
inactive: [1] > 100 µM | [2] > 100 µM | [3] > 100 µM | [17] > 100 µM | [4] > 100 µM | [5] > 100 µM | [7] > 100 µM | [8] > 10 µM | [9] > 100 µM | [10] > 100 µM | [18] > 100 µM | [11] > 100 µM | [12] > 100 µM | [13] > 100 µM | [14] > 100 µM | [15] > 100 µM | [16] > 100 µM

CCOC(=O)CC1(C(=O)OCC)c2[nH]c3ccccc3c2CCN1Cc1ccccc1 (stereo unspecified)
inactive: [1] 16.9 µM | [2] 19.3 µM | [3] 21.2 µM | [17] 16.7 µM | [4] 13.7 µM | [5] 14.4 µM | [6] 18.3 µM | [7] 16.9 µM | [8] 17.7 µM | [9] 13.5 µM | [10] 17.8 µM | [18] 19.2 µM | [11] 23.7 µM | [12] 19.9 µM | [13] 17.9 µM | [14] 20.8 µM | [15] 40.7 µM | [16] 17.7 µM

CCC(C)(O)c1cn(-c2cccc(S(=O)(=O)O)c2)nn1 (stereo unspecified)
inactive: [1] > 100 µM | [2] > 100 µM | [3] > 100 µM | [17] > 100 µM | [4] > 100 µM | [5] > 100 µM | [6] > 100 µM | [7] > 100 µM | [8] > 100 µM | [9] > 100 µM | [10] > 100 µM | [18] > 100 µM | [11] > 100 µM | [12] > 100 µM | [13] > 100 µM | [14] > 100 µM | [15] > 100 µM | [16] > 100 µM

O=S1(=O)OCCOS(=O)(=O)C1(Cl)Cl
inactive: [1] 61.9 µM | [2] > 100 µM | [17] > 100 µM | [4] > 100 µM | [5] > 100 µM | [6] > 100 µM | [7] > 100 µM | [8] > 100 µM | [9] 42.2 µM | [10] > 100 µM | [18] > 100 µM | [11] > 100 µM | [12] > 100 µM | [13] > 100 µM | [14] > 100 µM | [15] > 100 µM | [16] > 100 µM

CCOc1ccc(/N=C(/NC(=O)c2ccccc2)SC)cc1
inactive: [1] > 100 µM | [2] > 100 µM | [3] > 100 µM | [17] > 100 µM | [4] > 100 µM | [5] > 100 µM | [6] > 100 µM | [7] > 100 µM | [9] > 100 µM | [10] > 100 µM | [18] > 100 µM | [11] > 100 µM | [12] > 100 µM | [13] > 100 µM | [14] > 100 µM | [15] > 100 µM | [16] > 100 µM

NC(=S)N/C=C1\C(=O)Oc2ccccc2C1=O
inactive: [1] 53.5 µM | [2] 51.4 µM | [3] 28.9 µM | [17] > 100 µM | [4] 66.8 µM | [5] > 100 µM | [6] 63.4 µM | [7] > 100 µM | [8] > 100 µM | [9] > 100 µM | [10] 32.7 µM | [18] > 100 µM | [11] 56.5 µM | [12] 34 µM | [13] 22.6 µM | [14] 14.1 µM | [15] 94.2 µM | [16] > 100 µM

O=C1OC(c2cccc(C(F)(F)F)c2)c2ccc3ccccc3c21 (stereo unspecified)
inactive: [1] > 10 µM | [2] > 10 µM | [3] > 10 µM | [17] > 10 µM | [4] > 10 µM | [5] > 10 µM | [6] > 10 µM | [7] 4.76 µM | [8] > 10 µM | [9] 6.31 µM | [10] > 10 µM | [18] > 10 µM | [11] > 10 µM | [12] > 100 µM | [13] > 10 µM | [14] 18.7 µM | [15] > 100 µM | [16] 6.32 µM

O=C(Nc1cc(Cl)c(Cl)cc1Cl)C(=O)C1C=CCS1(=O)=O (stereo unspecified)
inactive: [1] > 100 µM | [2] > 100 µM | [3] > 100 µM | [17] > 100 µM | [4] > 100 µM | [5] > 100 µM | [6] > 100 µM | [7] > 100 µM | [8] > 100 µM | [9] > 100 µM | [10] > 100 µM | [18] > 100 µM | [11] > 100 µM | [12] > 100 µM | [13] > 100 µM | [14] 72.6 µM | [15] 11.2 µM | [16] > 100 µM

COc1ccc(-c2nc(N)nc(-c3cc(C)ccc3O)c2Cl)cc1
inactive: [1] 45.4 µM | [2] 43.7 µM | [3] 47.2 µM | [17] > 100 µM | [4] > 100 µM | [5] > 100 µM | [6] > 100 µM | [7] > 100 µM | [8] 65.5 µM | [9] > 100 µM | [10] 31.8 µM | [18] 11.3 µM | [11] 43.2 µM | [12] 31.7 µM | [14] 25 µM | [15] 24.3 µM | [16] > 100 µM
